Patent US7408025B2, “Lipopeptides as antibacterial agents” (priority 1999, dated 2008)

Test: Acute toxicity monitoring in non-inoculated mice
Type: in vivo, female CD-1 mice
Conditions: not inoculated; 10 mg/kg, s.c. × 2; acute toxicity group
Method: The test compound was dissolved in 10.0 ml of 50 mM phosphate buffer to give a solution of 1 mg/ml (pH=7.0). This solution was serially diluted with vehicle by 4-fold ([…]) to give 0.25, 0.063 and 0.016 mg/ml solutions. All the solutions were filtered with […] Nalgene syringe filter. Immediately after the bacterial inoculation, group 1 animals were subcutaneously (sc) injected with buffer (no test compound) and groups 2 to 5 were given test compound sc at 10.0, 2.5, 0.63, and 0.16 mg/kg, respectively. Group 6 animals received test compound sc at 10 mg/kg (or the highest therapeutic dose of a given compound) only for monitoring acute toxicity. These injections were repeated once at 4 hours after the inoculation for the respective groups. The injection volume at each time was 10 ml per kilogram of body weight. The results of the in vivo efficacy test are summarized in Table II, which provides a representative example of the results obtained for Compound 70. The 50% effective dose (ED50) is calculated on the basis of the number of mice surviving 7 days after inoculation. The ED50 was determined for other compounds of this invention in a similar manner.

CCCCCCCCCC(=O)NC(Cc1c[nH]c2ccccc12)C(=O)NC(CC(N)=O)C(=O)NC(CC(=O)O)C(=O)NC1C(=O)NCC(=O)NC(CCCNC(=O)C2Cc3c([nH]c4ccccc34)CN2)C(=O)NC(CC(=O)O)C(=O)NC(C)C(=O)NC(CC(=O)O)C(=O)NCC(=O)NC(CO)C(=O)NC(C(C)CC(=O)O)C(=O)NC(CC(=O)c2ccccc2N)C(=O)OC1C (stereo not shown) [Compound 70]
Survival (7 days): 5/5
